Here are results for 3 compounds from patent US7834010B2, “Modulators of peripheral 5-HT receptors” (Serodus AS, priority 2003, dated 2010).

Where “and” joins values, the source holds several entries; their conditions need not be identical. Equal entries are not always repeated.

The target of experiment [1] is T1, human 5-HT4(b) receptors (Homo sapiens, UniProt Q13639).
T1 construct: expressed in transfected cells; membranes prepared
Briefly: Radioligand binding assay with [3H]GR113808 on membranes of HEK293 cells stably expressing human 5-HT4(b) receptors. The following applies: competition with [3H]GR113808, HEK293 membranes, each line one individual measurement, read-out: Binding affinity (pKd value) (individual measurements) (converted). As to the method: (§1) Establishment of HEK293 Cell Lines Stably Expressing Human 5-HT4(b) Receptors
(§2) The development of HEK293 cell lines stably expressing human 5-HT4(b) receptors was described and published previously (Bach et al. 2001). Briefly, HEK293 cells (ATCC) were grown in Dulbecco's modified Eagle's medium with 10% fetal calf serum and penicillin (100 U/ml) and streptomycin (100 μg/ml). Cells were transfected with plasmid DNA (pcDNA3.1(−) containing human 5-HT4(b) receptor cDNA) using SuperFect Transfection Reagent (QIAGEN) according to the manufacturers protocol. Serial dilutions of transfected cells were plated in 96 well plates containing G418 (geneticin; Amersham) at 0.4 mg/ml, and isolated single colonies of cells transformed to the neomycin-resistant phenotype were expanded and tested for expression of serotonin receptors by measuring serotonin-stimulated adenylyl cyclase activity (Themmen et al. 1993). Transformed cells were always grown in the presence of G418 (0.4 mg/ml). For binding and adenylyl cyclase analysis, stable cell lines were grown and maintained in UltraCULTURE™ general purpose serum-free medium (BioWhittaker, Walkersville, Md., USA), supplemented with L-glutamine (2 mM), penicillin (100 U/ml) and streptomycin (100 μg/ml).
Membrane Preparation for Radioligand Binding and Adenylyl Cyclase Assay […]
Binding assays were performed in 96-well, round-bottom microtiter plates with total reaction volumes of 50-200 μl, containing the indicated concentration of [^3H]GR113808 with or without competing unlabelled ligand in a binding buffer containing 50 mM Tris-HCl (pH 7.5 at RT), 1 mM EDTA, 5 mM EGTA, 2 mM MgCl2, 1 mM ascorbate, 0.1% BSA and 100 μM GTP. […] The filters were dried and counted at approximately […] efficiency in a Top-Count liquid scintillation counter (Packard), using 20 μl per filter well of Micro-Scint liquid scintillation cocktail (Packard).
Binding and adenylyl cyclase data were analyzed by non-linear regression using Microsoft Excel with the Solver add-in, using the below equations. […]

Experiment [2] addresses T1, human 5-HT4(b) receptors. Briefly: Adenylyl cyclase assay in membranes of HEK293 cells stably expressing human 5-HT4(b) receptors. In kind it is biochemical. The following applies: for Kb: each line one individual measurement, read-out: Antagonist pKb value (individual measurements) (converted). The method, then: as §1, §2
Membrane Preparation for Radioligand Binding and Adenylyl Cyclase Assay
Membranes were prepared from stably transfected HEK293 cells cultured on 150-mm cell culture dishes and grown to 80% confluence in serum-free medium (UltraCULTURE™, BioWhittaker) with penicillin (10 U/ml) and 2 mM L-Glutamine (BioWhittaker). Cells were washed twice with 10 ml ice-cold HBSS, scraped with a rubber policeman in 10 ml ice-cold HBSS and collected by centrifugation at 800 g for 5 min at 4° C. The cell pellet was resuspended in 1 ml/dish ice-cold STE buffer (27% (w/v) sucrose, 50 mM Tris-HCl, pH 7.5 at 20° C., 5 mM EDTA) and homogenized with an Ultra-Turrax (IKA) homogenizer, using five 10 s bursts with 30 s cooling in ice-water between bursts. To remove nuclei, the homogenate was centrifuged at 300 g for 5 min at 4° C. and the supernatant was further centrifuged at 17000 g for 20 min at 4° C. and the supernatant removed. The crude membrane pellet was resuspended with ten strokes of tight fitting pestle B in a Dounce glass-glass homogenizer in 1 ml/dish ice-cold TE (50 mM Tris-HCl, pH 7.5 at RT, 5 mM EDTA). This procedure was repeated twice and the resuspended membranes were finally aliquoted and flash frozen in liquid nitrogen and stored at −70° C. until use.
Adenylyl cyclase activity was measured by determining conversion of [α-^32P]ATP to [^32P]cAMP in membranes prepared in STE by homogenization of cells grown and washed as described above in a Dounce glass-glass homogenizer by 10 strokes with the tight-fitting pestle. Membranes were kept on ice prior to assay. Adenylyl cyclase activities were measured on 10-μl aliquots in a final volume of 50 μl in the presence of 0.1 mM [α-^32P]ATP (1-2×10^6 cpm/assay), 4 mM MgCl2, 20 μM GTP, 1 mM EDTA, 1 mM [^3H]cAMP (ca. 10,000 cpm/assay), 1 μM 3-isobutyl-1-methyl xanthine (IBMX; Sigma), a nucleoside triphosphate regenerating system consisting of 20 mM creatine phosphate (Sigma), 0.2 mg/ml creatine phosphokinase (Sigma) and 40 U/ml myokinase (Sigma) and additives described in the text and figures. When forskolin (Calbiochem, La Jolla, Calif., USA) was used the concentration was 100 μM. Incubations were for 20 min at 32EC. Cyclic AMP formed was quantified by the double column chromatography system of Salomon et al. (1974) as modified by Bockaert et al. (1976).
Binding and adenylyl cyclase data were analyzed by non-linear regression using Microsoft Excel with the Solver add-in, using the below equations.
Activation of adenylyl cyclase—The data were fit to the equation Y=a+(b−a)x/(c+x) where a is basal adenylyl cyclase activity, b is maximal adenylyl cyclase activity stimulated by the agonist, c is EC50, and x is the concentration of agonist.

T1 sequence (Q13639 whole entry): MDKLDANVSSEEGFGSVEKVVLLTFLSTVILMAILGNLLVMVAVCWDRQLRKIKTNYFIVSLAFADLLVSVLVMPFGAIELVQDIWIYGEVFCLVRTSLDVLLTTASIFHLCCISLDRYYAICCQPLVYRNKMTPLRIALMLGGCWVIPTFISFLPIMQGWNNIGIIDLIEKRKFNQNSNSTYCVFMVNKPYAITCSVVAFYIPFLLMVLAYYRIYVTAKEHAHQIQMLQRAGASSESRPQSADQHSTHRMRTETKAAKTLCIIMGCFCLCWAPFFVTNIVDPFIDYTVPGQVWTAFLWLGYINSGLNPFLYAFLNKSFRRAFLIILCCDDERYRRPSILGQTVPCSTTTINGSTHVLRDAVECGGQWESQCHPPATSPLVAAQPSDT

In the case of `Cn1cc(C(=O)OCC2CCN(CCNS(C)(=O)=O)CC2)c2ccccc21` [GR113808, 1-methyl-1H-indole-3-carboxylic acid, [1-[2-[(methylsulfonyl)amino]ethyl]-4-piperidinyl]methyl ester], the Kd at human 5-HT4(b) receptors [1] is 0.115 nM and 0.049 nM and 0.0617 nM and 0.0195 nM. At human 5-HT4(b) receptors [2], the Agonist/Antagonist properties result is “Antagonist”; the Kb is 0.105 nM and 0.135 nM and 0.17 nM and 0.224 nM and 0.151 nM and 0.178 nM.

For `CCCCN1CCC(COC(=O)c2c[nH]c3ccccc23)CC1` [DDL-6002], the Kd at human 5-HT4(b) receptors [1] is 0.0282 nM and 0.0219 nM. Also, on human 5-HT4(b) receptors [2], the Agonist/Antagonist properties entry is reported as “Antagonist” and the Kb was 0.129 nM.

Turning to `CCCCN1CCC(CNC(=O)c2c3n(c4ccccc24)CCCO3)CC1` [SB207266], the Kd at human 5-HT4(b) receptors [1] is 0.0174 nM. Also, at human 5-HT4(b) receptors [2], the Agonist/Antagonist properties result is given as “Antagonist”; the Kb is 0.132 nM and 0.17 nM.
